Earlier results in patent US20190083000A1, “PERSONALIZED FOOD FOR DYSPHAGIA MANAGEMENT” (NESTEC S.A., priority 2016, published 2019).

Details: database Episuite 4.1

Volatility: Air/water partition coefficient log K [w/v]	Lipophilicity: Oil/Water partition coefficient log Kow [w/v]	Compound
−2.31	–	2-Methylpropanal
−5.09	−1.34	CC(=O)C(C)=O [2,3-Butanedione]
−4.97	−0.85	CCC(=O)C(C)=O [2,3-Pentanedione]
−2.20	1.23	CCC(C)C=O (stereo not drawn) [2-Methylbutanal]
−2.19	1.23	CC(C)CC=O [3-Methylbutanal]
−2.56	−0.17	CC=O [Acetaldehyde]
−1.49	0.92	CSC [Dimethylsulfide]
−1.79	1.85	CCCC(=O)OCC [Ethylbutyrate]
−8.47	1.05	COc1cc(C=O)ccc1O [Vanillin]

Compound	Volatility: Air/water partition coefficient log K [w/v]	Lipophilicity: Oil/Water partition coefficient log Kow [w/v]
C=C(C)[C@H]1CC=C(C)CC1 [Limonene]	0.12	4.38
CS [Methanethiol]	−0.97	0.78
